# Experimental data as given in US10114018B2, “IL-2 peptide derivatives, and uses thereof for the diagnosis and treatment of an autoimmune disease” (INSERM (INSTITUT NATIONAL DE LA SANTÉ ET DE LA RECHERCHE …, priority 2014, dated 2018).
# Test system: PBMCs from HD or T1D patients
# Assay: Quantification of IL-2 specific T cells by IFN-g ELISPOT
# Assay type: cell-based, human
# Details: peptides 10 μM/each; T1D patients (n=13) vs HD (n=14) PBMCs
# Experimental: IFN-g production by PBMCs from HD (n=14, closed circles) or T1D patients (n=13, open circles) was quantified by ELISPOT after stimulation with hIL-2 or Proleukin (Pro) peptides (10 μM/each) that gave a positive response in the initial pool screening, intracellular IA-2, adenovirus lysate (AdV) or PHA.
sequence,measurement,value
EFLNRWITFSQSIIS (Synthetic fragment) [Pro116-130],"IFN-g production by PBMCs (ELISPOT, IFN-g spot-forming cells/10^6 PBMCs)",can induce IFN-g production in a significantly higher frequency of T1D PBMCs compared to HD PBMCs
